pIC50: −log10 of the molar value.
Key:
[1] = molecular target: T1, phosphorylated BTK Y223 in NIH/3T3 BTK WT cells (Homo sapiens, UniProt Q06187); assay: Phosphor-BTK(Y223) assay, NIH/3T3 BTK WT cells; format: cell-based; settings: phosphorylated BTK Y223, NIH/3T3 BTK WT cells; read-out: NIH/3T3 BTK-WT pBTK IC50
T1 construct: expressed in transfected cells; host or cells: NIH/3T3 (mouse fibroblasts) engineered to express BTK WT
Procedure: (§1) The purpose of this assay is to simply, quickly and directly detect the endogenous level of BTK in cells. The specific assay steps are as follows: Day 1: NIH/3T3 BTK WT cells (7.5 k/well) and NIH/3T3 BTK C481S cells (10 k/well) were plated in 96-well plates, respectively, and cultured overnight at 37° C. and 5% CO2.
(§2) • 1. A 3-fold final concentration gradient dilution of the compound was prepared, and 50 μL was added to 100 μL of cell culture; 0.5% DMSO was used as a positive control for cell growth. • 2. The plate was incubated at 37° C., 5% CO2 for 0.5 h. • 3. Na3VO4 with a final concentration of 1 mM was added, and incubated at 37° C. and 5% CO2 for 2 hours. • 4. During the incubation, the following reagents were prepared: 1× added lysis buffer: 3 vol ddH2O+1 vol 4× lysis buffer+100× blocking reagent. p-BTK (Y223) cryptate-antibody and p-BTK (Y223) d2-antibody working solutions: 1 volume of each cryopreserved antibody (stored at −20° C.) was added to 19 times volumes of assay buffer (stored at 4° C.). • 5. After the incubation, the medium was removed and 50 μL of 1× added lysis buffer was added; The mixture was centrifuged at 500 rpm for 30 min at room temperature. • 6. The lysate was mixed well and 16 μL was transferred to a 384-well plate; 1× added lysis buffer was used as a blank control. • 7. 4 μL of pre-mixed working solutions of the two antibodies (cryptate Ab:d2 Ab=1:1) were added and the plate was sealed. • 8. The plate was incubated overnight at room temperature.
(§3) Biotek cytation3.0 microplate reader was used to read the plate at 665 nm and 620 nm, and the ratio of 665/620 nm per well was calculated.
(§4) IC50 was calculated using GraphPad Prism 7.0 software.
(§5) The following nonlinear fitting formula was used to obtain the phosphorylated BTK Y223 IC50 (half phosphorylation inhibitory concentration) of the compounds:
(§6) [formula] • X: Compound concentration log value • Y: Inhibition rate (% inhibition)
(§7) The formula for calculating cell phosphorylation inhibition rate (% inhibition rate) was: […]

[2] = molecular target: T2, phosphorylated BTK Y223 in NIH/3T3 BTK C481S cells (Homo sapiens, UniProt Q06187, C481S); assay: Phosphor-BTK(Y223) assay, NIH/3T3 BTK C481S cells; format: cell-based; settings: phosphorylated BTK Y223, NIH/3T3 BTK C481S cells; read-out: NIH/3T3 BTK-C481S pBTK IC50
T2 construct: expressed in transfected cells; host or cells: NIH/3T3 (mouse fibroblasts) engineered to express BTK C481S
Procedure: as §1, §2, §3, §4, §5, §6, §7

T1 sequence (Q06187 whole entry): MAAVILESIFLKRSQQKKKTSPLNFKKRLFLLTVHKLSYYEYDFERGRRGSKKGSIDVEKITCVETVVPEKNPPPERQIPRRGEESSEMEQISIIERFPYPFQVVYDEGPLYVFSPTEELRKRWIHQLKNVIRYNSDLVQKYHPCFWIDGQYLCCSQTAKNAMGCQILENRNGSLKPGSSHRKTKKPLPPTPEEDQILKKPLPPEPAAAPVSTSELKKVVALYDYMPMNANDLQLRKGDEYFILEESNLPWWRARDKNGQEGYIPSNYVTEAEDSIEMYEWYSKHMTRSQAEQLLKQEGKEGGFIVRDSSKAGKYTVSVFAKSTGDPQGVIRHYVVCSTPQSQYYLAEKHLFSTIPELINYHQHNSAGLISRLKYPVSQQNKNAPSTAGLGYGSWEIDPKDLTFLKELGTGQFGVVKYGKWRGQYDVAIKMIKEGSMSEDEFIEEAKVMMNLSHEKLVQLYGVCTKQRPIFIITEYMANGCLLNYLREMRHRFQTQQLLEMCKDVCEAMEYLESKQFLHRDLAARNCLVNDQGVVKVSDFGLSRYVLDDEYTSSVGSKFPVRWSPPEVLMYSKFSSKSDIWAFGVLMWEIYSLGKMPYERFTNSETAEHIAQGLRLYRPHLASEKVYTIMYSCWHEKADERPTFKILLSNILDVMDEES
T2 sequence (Q06187 whole entry C481S): as the sequence (Q06187 whole entry) above, with C481S counted along it

| SMILES | pIC50 [1] | pIC50 [2] |
| --- | --- | --- |
| COc1ccc(F)cc1C(=O)NCc1ccc(-c2nn(C3CCCCC(O)C3)c3ncnc(N)c23)cc1 (stereo not shown) [Example 57, N-(4-(4-amino-1-(3-hydroxycycloheptyl)-1H-pyrazolo[3,4-d]pyrimidin-3-yl)benzyl)-5-fluoro-2-methoxybenzamide] | 7.30 to 7.60 | 7.00 to 7.30 |
| COc1ccc(F)cc1C(=O)NCc1ccc(-c2nn(C3CCC(CO)OC3)c(N)c2C(N)=O)cc1 (single isomer, unassigned) [Example 14, 5-amino-3-(4-((5-fluoro-2-methoxybenzamido)methyl)phenyl)-1-(6-(hydroxymethyl)tetrahydro-2H-pyran-3-yl)-1H-pyrazole-4-carboxamide] | 7.00 to 7.30 | 6.30 to 7.00 |
| COc1ccc(F)cc1C(=O)NCc1ccc(-c2nn(C3CCC(CO)OC3)c3ncnc(N)c23)cc1 (single isomer, unassigned) [Example 16, N-(4-(4-amino-1-(6-(hydroxymethyl)tetrahydro-2H-pyran-3-yl)-1H-pyrazolo[3,4-d]pyrimidin-3-yl)benzyl)-5-fluoro-2-methoxybenzamide] | 7.00 to 7.30 | 6.30 to 7.00 |
| COc1ccc(F)cc1C(=O)NCc1ccc(-c2cc(C3CCC(CO)OC3)n3ncnc(N)c23)cc1 (stereo not shown) [Example 58, N-(4-(4-amino-7-(6-(hydroxymethyl)tetrahydro-2H-pyran-3-yl)pyrrolo[2,1-f][1,2,4]triazin-5-yl)benzyl)-5-fluoro-2-methoxybenzamide] | ≥ 7.60 | 7.30 to 7.60 |
| COc1ccc(F)cc1C(=O)NCc1ccc(-c2nn(C3CCC(O)C3)c3c(=O)[nH]nc(N)c23)cc1 (stereo not shown) [Example 41, N-(4-(4-amino-1-(3-hydroxycyclopentanyl)-7-oxo-6,7-dihydro-1H-pyrazolo[3,4-d]pyridazin-3-yl)benzyl)-5-fluoro-2-methoxybenzamide] | 7.30 to 7.60 | 7.00 to 7.30 |
| COc1ccc(F)cc1C(=O)NCc1ccc(-c2nn(C3CCCC(C)(O)C3)c3ncnc(N)c23)cc1 (single isomer, unassigned) [Example 25, N-(4-(4-amino-1-(3-hydroxy-3-methylcyclohexanyl)-1H-pyrazolo[3,4-d]pyrimidin-3-yl)benzyl)-5-fluoro-2-methoxybenzamide] | 7.30 to 7.60 | 7.30 to 7.60 |
| COc1ccc(F)cc1C(=O)NCc1ccc(-c2nn(C3CCCC(O)C3)c(N)c2C(N)=O)cc1 (stereo not shown) [Example 1, 5-amino-3-(4-((5-fluoro-2-methoxybenzoylamino)methyl)phenyl)-1-(3-hydroxycyclohexyl)-1H-pyrazole-4-carboxamide] | 6.30 to 7.00 | 6.30 to 7.00 |
| COc1ccc(F)cc1C(=O)NCc1ccc(-c2nn([C@@H]3C=C[C@@H](O)C3)c3ncnc(N)c23)cc1 (single isomer, unassigned) [Example 38, trans-N-(4-(4-amino-1-(4-hydroxycyclopent-2-en-1-yl)-1H-pyrazolo[3,4-d]pyrimidin-3-yl)benzyl)-5-fluoro-2-methoxybenzamide] | ≥ 7.60 | 7.30 to 7.60 |
| COc1ccc(F)cc1C(=O)NCc1ccc(-c2nn([C@@H]3C=C[C@@H](O)C3)c3ncnc(N)c23)cc1 (single isomer, unassigned) [Example 50, trans-N-(4-(4-amino-1-(4-hydroxycyclopent-2-en-1-yl)-1H-pyrazolo[3,4-d]pyrimidin-3-yl)benzyl)-5-fluoro-2-methoxybenzamide] | ≥ 7.60 | 7.30 to 7.60 |
| COc1ccc(F)cc1C(=O)NCc1ccc(-c2nn(C3CCCC(O)C3)c3c(=O)[nH]nc(N)c23)cc1 (stereo not shown) [Example 44, N-(4-(4-amino-1-(3-hydroxycyclohexanyl)-7-oxo-6,7-dihydro-1H-pyrazolo[3,4-d]pyridazin-3-yl)benzyl)-5-fluoro-2-methoxybenzamide] | 7.00 to 7.30 | 6.30 to 7.00 |
| COc1ccc(F)cc1C(=O)NCc1ccc(-c2nn(C3CCC(CO)OC3)c3c(=O)[nH]nc(N)c23)cc1 (single isomer, unassigned) [Example 48, N-(4-(4-amino-1-(6-(hydroxymethyl)tetrahydro-2H-pyran-3-yl)-7-oxo-6,7-dihydro-1H-pyrazolo[3,4-d]pyridazin-3-yl)benzyl)-5-fluoro-2-methoxybenzamide] | 6.30 to 7.00 | – |
| COc1ccc(F)cc1C(=O)NCc1ccc(-c2cc(C3CCC(CO)OC3)n3ncnc(N)c23)cc1 (single isomer, unassigned) [Example 62, N-(4-(4-amino-7-(6-(hydroxymethyl)tetrahydro-2H-pyran-3-yl)pyrrolo[2,1-f][1,2,4]triazin-5-yl)benzyl)-5-fluoro-2-methoxybenzamide] | ≥ 7.60 | 7.30 to 7.60 |
| COc1ccc(F)cc1C(=O)NCc1ccc(-n2cc(C3CCC(CO)OC3)c3ncnc(N)c32)cc1 (single isomer, unassigned) [Example 51, N-(4-(4-amino-7-(6-(hydroxymethyl)tetrahydro-2H-pyran-3-yl)-5H-pyrrolo[3,2-d]pyrimidin-5-yl)benzyl)-5-fluoro-2-methoxybenzamide] | 7.30 to 7.60 | 7.00 to 7.30 |
| COc1ccc(F)cc1C(=O)NCc1ccc(-c2nn(C3CCCC(C)(O)C3)c3ncnc(N)c23)cc1 (single isomer, unassigned) [Example 27, N-(4-(4-amino-1-(3-hydroxy-3-methylcyclohexanyl)-1H-pyrazolo[3,4-d]pyrimidin-3-yl)benzyl)-5-fluoro-2-methoxybenzamide] | ≥ 7.60 | 7.30 to 7.60 |
| COc1ccc(F)cc1C(=O)NCc1ccc(-c2nn(C3CCC(CO)OC3)c3ncnc(N)c23)cc1 (single isomer, unassigned) [Example 17, N-(4-(4-amino-1-(6-(hydroxymethyl)tetrahydro-2H-pyran-3-yl)-1H-pyrazolo[3,4-d]pyrimidin-3-yl)benzyl)-5-fluoro-2-methoxybenzamide] | 6.30 to 7.00 | 6.30 to 7.00 |
| COc1ccc(F)cc1C(=O)NCc1ccc(-c2nn(C3CCCC(C)(O)C3)c3ncnc(N)c23)cc1 (single isomer, unassigned) [Example 24, N-(4-(4-amino-1-(3-hydroxy-3-methylcyclohexanyl)-1H-pyrazolo[3,4-d]pyrimidin-3-yl)benzyl)-5-fluoro-2-methoxybenzamide] | ≥ 7.60 | 7.30 to 7.60 |
| COc1ccc(F)cc1C(=O)NCc1ccc(-c2nn(C3CCC(CO)OC3)c3c(=O)[nH]nc(N)c23)cc1 (single isomer, unassigned) [Example 47, N-(4-(4-amino-1-(6-(hydroxymethyl)tetrahydro-2H-pyran-3-yl)-7-oxo-6,7-dihydro-1H-pyrazolo[3,4-d]pyridazin-3-yl)benzyl)-5-fluoro-2-methoxybenzamide] | 6.30 to 7.00 | 6.30 to 7.00 |
| COc1ccc(F)cc1C(=O)NCc1ccc(-c2nn(C3CCC(O)C3)c3c(=O)[nH]nc(N)c23)cc1 (stereo not shown) [Example 42, N-(4-(4-amino-1-(3-hydroxycyclopentanyl)-7-oxo-6,7-dihydro-1H-pyrazolo[3,4-d]pyridazin-3-yl)benzyl)-5-fluoro-2-methoxybenzamide] | 7.00 to 7.30 | 7.00 to 7.30 |
| COc1ccc(F)cc1C(=O)NCc1ccc(-c2nn(C3CCCC(O)C3)c(N)c2C(N)=O)cc1 (single isomer, unassigned) [Example 3, 5-amino-3-(4-((5-fluoro-2-methoxybenzamido)methyl)phenyl)-1-(3-hydroxycyclohexyl)-1H-pyrazole-4-carboxamide] | 6.30 to 7.00 | 6.30 to 7.00 |

From patent US20250179027A1, “CYCLOALKYL OR HETEROCYCLYL SUBSTITUTED HETEROARYL COMPOUND, AND COMPOSITION AND USE THEREOF” (Shenzhen TargetRx, Inc., priority 2022, published 2025)
